Assay results reported in ChEMBL document CHEMBL1201862, “PubChem BioAssay data set” (2004).
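Assay format: 96-well plates, 48-hour exposure. GI50 = concentration required for 50% inhibition of growth.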 Calls of active or inactive are those of the source. Rule as the data show it: active = GI50 up to about 1.1 µM and inactive = higher.

How the values were obtained:
Assay in all cases: NCI tumour cell line growth inhibition, 48 h
ACHN = test system: ACHN
EKVX = test system: EKVX
HCT-116 = test system: HCT-116
HL-60 = test system: HL-60
HOP-92 = test system: HOP-92
HT-29 = test system: HT-29
KM12 = test system: KM12
M14 = test system: M14
MOLT-4 = test system: MOLT-4
NCI-H23 = test system: NCI-H23
NCI-H522 = test system: NCI-H522
OVCAR-8 = test system: OVCAR-8
RPMI-8226 = test system: RPMI-8226
SF-295 = test system: SF-295
SK-MEL-5 = test system: SK-MEL-5
SNB-19 = test system: SNB-19
SW-620 = test system: SW-620
UACC-257 = test system: UACC-257
HCC 2998 = test system: HCC 2998
SR = test system: SR

Measured: GI50

O=c1c(Cc2ccccc2Cc2c(O)oc3ccccc3c2=O)c(O)oc2ccccc12
inactive: ACHN > 100 µM | EKVX > 100 µM | HCT-116 > 100 µM | HL-60 > 100 µM | HOP-92 > 100 µM | HT-29 > 100 µM | KM12 > 100 µM | M14 > 100 µM | MOLT-4 > 100 µM | NCI-H23 > 100 µM | NCI-H522 > 100 µM | OVCAR-8 > 100 µM | RPMI-8226 > 100 µM | SF-295 > 100 µM | SK-MEL-5 > 100 µM | SNB-19 > 100 µM | SW-620 > 100 µM | UACC-257 > 100 µM

COC(=O)Cc1cc(=O)oc2c1C(=O)CCC2
inactive: ACHN > 100 µM | EKVX > 100 µM | HCC 2998 > 100 µM | HCT-116 > 100 µM | HL-60 > 100 µM | HOP-92 > 100 µM | HT-29 > 100 µM | KM12 > 100 µM | M14 > 100 µM | MOLT-4 > 100 µM | NCI-H23 > 100 µM | NCI-H522 > 100 µM | OVCAR-8 > 100 µM | RPMI-8226 > 100 µM | SF-295 > 100 µM | SK-MEL-5 > 100 µM | SNB-19 > 100 µM | SW-620 > 100 µM | UACC-257 > 100 µM

Cc1c(/N=N/c2ccc(Cl)cc2)c(C)n(C2OC(CO)C(O)C(O)C2O)c(=S)c1C#N (stereo not given)
inactive: ACHN 19.6 µM | EKVX 21.8 µM | HCC 2998 23.7 µM | HCT-116 15.1 µM | HL-60 22.1 µM | HOP-92 31.5 µM | HT-29 32.7 µM | KM12 24.8 µM | M14 20 µM | MOLT-4 13.9 µM | NCI-H23 30 µM | NCI-H522 20 µM | OVCAR-8 30.1 µM | RPMI-8226 16.4 µM | SF-295 31.8 µM | SK-MEL-5 8.45 µM | SNB-19 > 100 µM | SW-620 > 100 µM | UACC-257 24.2 µM

[N-]=[N+]=C1N=CN=C1c1nc[nH]n1
inactive: ACHN 39 µM | EKVX 40 µM | HCC 2998 63 µM | HCT-116 25 µM | HL-60 5.83 µM | HOP-92 12.4 µM | HT-29 > 100 µM | KM12 93.5 µM | M14 40.6 µM | MOLT-4 6.27 µM | NCI-H23 34.1 µM | NCI-H522 30.7 µM | OVCAR-8 21.4 µM | RPMI-8226 10.8 µM | SF-295 82.4 µM | SK-MEL-5 57.8 µM | SNB-19 80.2 µM | SW-620 22.1 µM | UACC-257 57 µM

CC(C)(C)c1cc(C(P(=O)(O)O)P(=O)(O)O)cc(C(C)(C)C)c1O
inactive: ACHN > 100 µM | EKVX > 100 µM | HCC 2998 > 100 µM | HCT-116 > 100 µM | HL-60 > 100 µM | HOP-92 > 100 µM | HT-29 > 100 µM | KM12 > 100 µM | M14 > 100 µM | MOLT-4 > 100 µM | NCI-H23 > 100 µM | NCI-H522 > 100 µM | OVCAR-8 > 100 µM | RPMI-8226 > 100 µM | SF-295 > 100 µM | SK-MEL-5 > 100 µM | SNB-19 > 100 µM | SW-620 > 100 µM | UACC-257 > 100 µM

N#Cc1c(N)c(-c2ccc(Cl)cc2)c(F)c2ccccc12
inactive: ACHN > 100 µM | EKVX 7 µM | HCC 2998 > 100 µM | HCT-116 > 100 µM | HOP-92 3.98 µM | HT-29 75.5 µM | KM12 > 100 µM | M14 > 100 µM | NCI-H23 > 100 µM | NCI-H522 > 100 µM | OVCAR-8 > 100 µM | RPMI-8226 6.65 µM | SF-295 > 100 µM | SK-MEL-5 > 100 µM | SNB-19 > 100 µM | SW-620 > 100 µM | UACC-257 > 100 µM

COC1OC(C)C(O)CC1OS(=O)(=O)c1ccc(C)cc1 (stereo not given)
inactive: ACHN > 100 µM | EKVX > 100 µM | HCT-116 > 100 µM | HL-60 > 100 µM | HOP-92 > 100 µM | HT-29 > 100 µM | KM12 > 100 µM | M14 > 100 µM | MOLT-4 > 100 µM | NCI-H23 > 100 µM | NCI-H522 > 100 µM | OVCAR-8 > 100 µM | RPMI-8226 > 100 µM | SF-295 > 100 µM | SK-MEL-5 > 100 µM | SNB-19 > 100 µM | SW-620 > 100 µM | UACC-257 > 100 µM

C[S+](C)CCOC(=O)C(=[N+]=[N-])c1ccc([N+](=O)[O-])cc1
inactive: ACHN > 100 µM | EKVX > 100 µM | HCC 2998 > 100 µM | HCT-116 > 100 µM | HL-60 > 100 µM | HT-29 > 100 µM | KM12 > 100 µM | M14 > 100 µM | MOLT-4 > 100 µM | NCI-H23 > 100 µM | NCI-H522 > 100 µM | OVCAR-8 > 100 µM | RPMI-8226 > 100 µM | SF-295 > 100 µM | SK-MEL-5 > 100 µM | SNB-19 > 100 µM | SW-620 > 100 µM | UACC-257 > 100 µM

N#CC12C(=O)N3C(=NC(c4ccccc4)NC3c3ccccc3)C1(C#N)C(c1ccccc1)NC1=C2CCC1 (stereo not given)
inactive: ACHN > 100 µM | EKVX > 100 µM | HCC 2998 > 100 µM | HCT-116 > 100 µM | HL-60 > 100 µM | HOP-92 > 100 µM | HT-29 > 100 µM | KM12 > 100 µM | M14 > 100 µM | MOLT-4 > 100 µM | NCI-H23 > 100 µM | NCI-H522 > 100 µM | OVCAR-8 > 100 µM | RPMI-8226 > 100 µM | SF-295 > 100 µM | SK-MEL-5 > 100 µM | SNB-19 > 100 µM | SW-620 > 100 µM | UACC-257 > 100 µM

Cc1ccc(/C=N/Nc2nc3ccccc3s2)s1
inactive: ACHN > 100 µM | EKVX 50.7 µM | HCC 2998 55.6 µM | HCT-116 > 100 µM | HL-60 > 100 µM | HOP-92 > 100 µM | HT-29 40.8 µM | KM12 49.1 µM | M14 > 100 µM | MOLT-4 > 100 µM | NCI-H23 > 100 µM | NCI-H522 > 100 µM | OVCAR-8 > 100 µM | RPMI-8226 > 100 µM | SF-295 40.9 µM | SK-MEL-5 38.9 µM | SNB-19 51.9 µM | SW-620 > 100 µM | UACC-257 > 100 µM

O=c1[nH]nc2ccccc2c1Cc1ccccc1
inactive: ACHN > 100 µM | EKVX > 100 µM | HCC 2998 59.3 µM | HCT-116 > 100 µM | HOP-92 > 100 µM | HT-29 > 100 µM | KM12 > 100 µM | M14 > 100 µM | MOLT-4 > 100 µM | NCI-H23 > 100 µM | OVCAR-8 > 100 µM | RPMI-8226 > 100 µM | SF-295 > 100 µM | SK-MEL-5 > 100 µM | SNB-19 > 100 µM | SW-620 > 100 µM | UACC-257 > 100 µM

O=C(CN1CCN(c2ccccc2)CC1)c1ccc2[nH]c(=O)oc2c1
inactive: ACHN > 100 µM | EKVX > 100 µM | HCT-116 > 100 µM | HL-60 > 100 µM | HT-29 > 100 µM | KM12 > 100 µM | M14 > 100 µM | MOLT-4 > 100 µM | NCI-H23 > 100 µM | OVCAR-8 > 100 µM | RPMI-8226 > 100 µM | SF-295 > 100 µM | SR > 100 µM | SW-620 > 100 µM | UACC-257 > 100 µM

CC(=O)C1C(=O)N(C(C)C)C[C@@H]2CCC(=O)C[C@H]12 (stereo not given in full)
inactive: EKVX > 100 µM | HCC 2998 > 100 µM | HCT-116 > 100 µM | HL-60 > 100 µM | HOP-92 > 100 µM | HT-29 > 100 µM | KM12 > 100 µM | M14 > 100 µM | MOLT-4 > 100 µM | NCI-H23 > 100 µM | NCI-H522 > 100 µM | OVCAR-8 > 100 µM | RPMI-8226 > 100 µM | SF-295 > 100 µM | SK-MEL-5 > 100 µM | SNB-19 > 100 µM | SW-620 > 100 µM | UACC-257 > 100 µM

Clc1ccc(OCc2nnc3sc(SSc4nn5c(COc6ccc(Cl)cc6)nnc5s4)nn23)cc1
inactive: ACHN > 100 µM | EKVX 66.5 µM | HCT-116 > 100 µM | HL-60 > 100 µM | HT-29 > 100 µM | KM12 > 100 µM | M14 > 100 µM | NCI-H23 > 100 µM | NCI-H522 63.1 µM | OVCAR-8 > 100 µM | RPMI-8226 44.8 µM | SF-295 > 100 µM | SK-MEL-5 60.8 µM | SNB-19 > 100 µM | SW-620 > 100 µM | UACC-257 > 100 µM

Cc1c(C(=O)/C=C/c2c(Cl)cccc2Cl)c(=O)n(-c2ccccc2)n1C
inactive: ACHN 25.8 µM | EKVX 50.1 µM | HCC 2998 23 µM | HCT-116 8.53 µM | HOP-92 17.6 µM | HT-29 18 µM | KM12 15.9 µM | MOLT-4 5.38 µM | NCI-H522 12.8 µM | OVCAR-8 16.7 µM | SF-295 26 µM | SNB-19 31.9 µM | SW-620 7 µM | UACC-257 20.9 µM
